Reference: article PMC10004634 (PLOS ONE, 2023)

Test system: U-2932 cells
Assay: SILAC phosphoproteomic analysis
Procedure: For differential SILAC encoding, both cells were grown in arginine- and lysine-deficient culture medium containing light (Arg0/Lys0) or heavy (Arg10/Lys8) isotopic forms of L-arginine and L-lysine (SILAC medium). […] For mass spectrometric analysis, phosphopeptide-enriched samples were loaded onto a reversed phase analytical column, resolved by an acetonitrile gradient using a nanoflow HPLC system and directly electrosprayed via a nanoelectrospray ion source into an LTQ-Orbitrap Velos mass spectrometer (Thermo Fisher Scientific). […] A false discovery rate (FDR) of 0.01 was selected for protein and peptide identification, and a posterior error probability of ≤0.1 for each peptide-to-spectral match was required. The resulting list of phosphosites exported from the MaxQuant software was filtered for class-I sites (only serine, threonine, or tyrosine assignments with a localization probability of ≥0.75) [33] and used for all subsequent biostatistical analysis. […] Gaussian regression analysis on the histogram plot of these log2-transformed ratios was performed using Sigmaplot (version 10.0; Systat Software Inc.). The obtained values for the mean and standard deviation across the whole quantitative dataset were used to determine thresholds for significant regulation of at least ±2.5 σ. […] Furthermore, only phosphosites conforming to this criterion and showing consistent regulation in both biological replicates were considered as regulated.

CC#CC(=O)N1CC[C@@H](n2c(=O)n(-c3ccc(Oc4ccccc4)cc3)c3c(N)ncnc32)C1 [Tirabrutinib]
number of downregulated (suppressed) phosphorylation sites (1 μM, 1 h, ratio <0.664): 30 | number of upregulated (induced) phosphorylation sites (1 μM, 1 h, ratio >1.506): four | Tirabrutinib/ctrl. rep. 1 (AKT1S1 S88): 1.16 | Tirabrutinib/ctrl. rep. 2 (AKT1S1 S88): 1.03 | Tirabrutinib/ctrl. rep. 1 (AKT1S1 S183): 0.86 | Tirabrutinib/ctrl. rep. 2 (AKT1S1 S183): 0.93 | Tirabrutinib/ctrl. rep. 2 (AKT1S1 T97): 0.84 | Tirabrutinib/ctrl. rep. 1 (AKT1S1 T246): 0.84 | Tirabrutinib/ctrl. rep. 2 (AKT1S1 T246): 0.87 | Tirabrutinib/ctrl. rep. 2 (AKT1 S124): 0.96 | Tirabrutinib/ctrl. rep. 1 (AKT2 S126): 1.09 | Tirabrutinib/ctrl. rep. 2 (AKT2 S126): 0.97 | Tirabrutinib/ctrl. rep. 1 (ATF2 S90): 0.87 | Tirabrutinib/ctrl. rep. 2 (ATF2 S90): 0.93 | Tirabrutinib/ctrl. rep. 1 (ATF2 S112): 1.02 | Tirabrutinib/ctrl. rep. 2 (ATF2 S112): 1.00 | Tirabrutinib/ctrl. rep. 1 (ATF2 T71): 0.99 | Tirabrutinib/ctrl. rep. 2 (ATF2 T71): 0.86 | Tirabrutinib/ctrl. rep. 1 (ATF2 T73): 0.69 | Tirabrutinib/ctrl. rep. 2 (CARD11 S483): 1.78 | Tirabrutinib/ctrl. rep. 1 (CARD11 S610): 0.99 | Tirabrutinib/ctrl. rep. 2 (CARD11 S610): 0.96 | Tirabrutinib/ctrl. rep. 1 (CARD11 S903): 1.10 | Tirabrutinib/ctrl. rep. 2 (CARD11 S903): 1.31 | Tirabrutinib/ctrl. rep. 1 (CARD11 S910): 1.78 | Tirabrutinib/ctrl. rep. 2 (CARD11 S910): 0.95 | Tirabrutinib/ctrl. rep. 1 (CARD11 S942): 0.96 | Tirabrutinib/ctrl. rep. 2 (CARD11 S942): 0.97 | Tirabrutinib/ctrl. rep. 1 (ERF S21): 0.26 | Tirabrutinib/ctrl. rep. 1 (HSP27 S78): 1.14 | Tirabrutinib/ctrl. rep. 2 (HSP27 S78): 0.79 | Tirabrutinib/ctrl. rep. 1 (HSP27 S82): 1.09 | Tirabrutinib/ctrl. rep. 2 (HSP27 S82): 0.76 | Tirabrutinib/ctrl. rep. 1 (HSP27 S86): 0.81 | Tirabrutinib/ctrl. rep. 2 (HSP27 S86): 1.16 | Tirabrutinib/ctrl. rep. 1 (IKBKB S550): 0.86 | Tirabrutinib/ctrl. rep. 2 (IKBKB S550): 0.97 | Tirabrutinib/ctrl. rep. 1 (IKBKB S672): 1.04 | Tirabrutinib/ctrl. rep. 2 (IKBKB S672): 1.20 | Tirabrutinib/ctrl. rep. 1 (IKBKG S455): 1.15 | Tirabrutinib/ctrl. rep. 2 (IKBKG S455): 0.87 | Regulation of Phosphorylation Site (MAPK1 T185): ↓ | Tirabrutinib/ctrl. rep. 1 (MAPK1 T185): 0.23 | Tirabrutinib/ctrl. rep. 2 (MAPK1 T185): 0.41 | Regulation of Phosphorylation Site (MAPK1 Y187): ↓ | Tirabrutinib/ctrl. rep. 1 (MAPK1 Y187): 0.23 | Tirabrutinib/ctrl. rep. 2 (MAPK1 Y187): 0.41 | Tirabrutinib/ctrl. rep. 1 (NHE1 S602): 0.96 | Tirabrutinib/ctrl. rep. 2 (NHE1 S602): 0.92 | Tirabrutinib/ctrl. rep. 1 (NHE1 S605): 0.95 | Tirabrutinib/ctrl. rep. 2 (NHE1 S605): 0.92 | Tirabrutinib/ctrl. rep. 1 (NHE1 S785): 1.08 | Tirabrutinib/ctrl. rep. 2 (NHE1 S785): 1.26 | Tirabrutinib/ctrl. rep. 1 (NHE1 S796): 0.80 | Tirabrutinib/ctrl. rep. 2 (NHE1 S796): 0.78 | Tirabrutinib/ctrl. rep. 1 (PEA15 S82): 0.89 | Tirabrutinib/ctrl. rep. 2 (PEA15 S82): 0.86 | Tirabrutinib/ctrl. rep. 1 (PEA15 S137): 1.18 | Tirabrutinib/ctrl. rep. 2 (PEA15 S137): 1.03 | Tirabrutinib/ctrl. rep. 1 (PIK3AP1 S642): 1.22 | Tirabrutinib/ctrl. rep. 2 (PIK3AP1 S642): 0.88 | Tirabrutinib/ctrl. rep. 1 (PIK3AP1 T151): 1.02 | Tirabrutinib/ctrl. rep. 2 (PIK3AP1 T151): 1.07 | Tirabrutinib/ctrl. rep. 1 (PLCG2 S341): 0.84 | Tirabrutinib/ctrl. rep. 2 (PLCG2 S341): 1.25 | Tirabrutinib/ctrl. rep. 1 (PLCG2 S871): 0.99 | Tirabrutinib/ctrl. rep. 2 (PLCG2 S871): 0.98 | Tirabrutinib/ctrl. rep. 1 (PLCG2 S1236): 1.17 | Tirabrutinib/ctrl. rep. 2 (PLCG2 S1236): 0.99 | Tirabrutinib/ctrl. rep. 1 (PRKCB T497): 0.99 | Tirabrutinib/ctrl. rep. 2 (PRKCB T497): 1.00 | Tirabrutinib/ctrl. rep. 1 (PRKCB T500): 0.99 | Tirabrutinib/ctrl. rep. 2 (PRKCB T500): 1.00
